Earlier results in patent publication US20170056463A1, “COMPOSITIONS AND METHODS FOR TREATING DIABETES” (priority 2015, published 2017).

Key:
[1] = tested on: phosphotyrosine phosphatase
[2] = tested on: HSV (herpes simplex virus)
[3] = not given; remark: listed apart in the source

SMILES: [Cr] [Chromium, chromium]
- phosphotyrosine phosphatase activity [1]: inhibit

SMILES: COc1ccc2cc3[n+](cc2c1OC)CCc1cc2c(cc1-3)OCO2 [berberine]
- growth of HSV [2]: inhibits growth
- levels of fasting blood sugar (after oral supplementation with the herbal extract of berberine, patients with pre-diabetes and diabetes): normalize
- lowering of blood glucose (doses of about 1,000 mg daily, compared with metformin): as effectively as metformin
- cholesterol ratios (previous investigations): improved
- hemoglobin A1c (HbA1c) (previous investigations): significant reduction

SMILES: [Zn] [zinc]
- blood glucose levels ([3]; 2 hour post-prandial measurements in people treated with zinc): reduced
- systolic and diastolic blood pressures ([3]; after zinc supplementation): significant reduction
